The text below walks through data of ChEMBL document CHEMBL1221245, “A physical properties based approach for the exploration of a 4-hydroxybenzothiazolone series of beta2-adrenoceptor agonists as inhaled long-acting bronchodilators” (Bioorg Med Chem Lett, 2010).

Where only a bound is given, the exact number is not on record here.

For assay [1], the target named is Beta-2 adrenergic receptor (Homo sapiens, UniProt P07550).
Description: Displacement of [3H]CGP12177 from human beta2 adrenoceptor
In assay [2] the target is Beta-1 adrenergic receptor (Homo sapiens, UniProt P08588).
Chain of Beta-1 adrenergic receptor (P08588 whole entry): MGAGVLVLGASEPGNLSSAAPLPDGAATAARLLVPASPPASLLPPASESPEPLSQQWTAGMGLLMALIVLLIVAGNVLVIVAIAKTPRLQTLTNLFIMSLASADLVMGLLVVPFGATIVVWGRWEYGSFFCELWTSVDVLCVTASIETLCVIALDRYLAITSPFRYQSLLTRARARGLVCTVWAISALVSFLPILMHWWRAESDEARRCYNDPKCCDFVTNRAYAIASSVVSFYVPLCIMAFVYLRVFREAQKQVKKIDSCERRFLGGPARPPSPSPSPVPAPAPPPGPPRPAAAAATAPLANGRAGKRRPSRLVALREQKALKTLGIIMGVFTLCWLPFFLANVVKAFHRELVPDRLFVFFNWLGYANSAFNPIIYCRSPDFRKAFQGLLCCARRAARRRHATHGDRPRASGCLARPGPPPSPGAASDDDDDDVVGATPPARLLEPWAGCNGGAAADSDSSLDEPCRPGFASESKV
Description: Displacement of [3H]CGP12177 from human beta-1 adrenoceptor
Assay [3] is described as follows: Agonist activity at beta 1 adrenoceptor in electrically-stimulated guinea pig left atrium at 1 uM. Format: functional, Cavia porcellus, Cardiac atrium.

Chain of Beta-2 adrenergic receptor (P07550 whole entry): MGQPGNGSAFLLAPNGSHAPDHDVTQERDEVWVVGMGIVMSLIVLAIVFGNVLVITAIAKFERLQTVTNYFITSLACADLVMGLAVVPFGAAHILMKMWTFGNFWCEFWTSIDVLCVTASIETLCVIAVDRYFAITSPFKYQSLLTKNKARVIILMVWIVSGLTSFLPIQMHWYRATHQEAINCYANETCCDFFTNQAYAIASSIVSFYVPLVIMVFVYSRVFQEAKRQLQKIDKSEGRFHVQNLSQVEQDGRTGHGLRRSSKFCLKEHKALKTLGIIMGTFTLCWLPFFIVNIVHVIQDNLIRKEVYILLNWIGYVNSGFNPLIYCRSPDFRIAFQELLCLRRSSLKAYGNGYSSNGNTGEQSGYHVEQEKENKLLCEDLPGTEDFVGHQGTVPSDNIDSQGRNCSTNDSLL

On to `O=c1[nH]c2c(O)ccc([C@@H](O)CNCCSc3ccc(Cl)cc3)c2s1`, for which the values for the Ki in assay [1] and in assay [2] were 3 nM and 1.7 nM, respectively.
Take `O=c1[nH]c2c(O)ccc([C@@H](O)CN[C@H]3CCCc4ccccc43)c2s1`: the inhibition constant Ki in assay [1] was 30.2 nM; in assay [2], 58.2 nM.
Turning to `CN(CCCNC[C@H](O)c1ccc(O)c2[nH]c(=O)sc12)c1ccccc1`, the Ki came out at 0.3 nM in assay [1] and 8.4 nM in assay [2].
`O=c1[nH]c2c(O)ccc([C@@H](O)CNCCCCc3ccccc3)c2s1`: the Ki worked out at 1.8 nM in assay [1] and 15 nM in assay [2].
For `CC(C)(Cc1ccccc1)NC[C@H](O)c1ccc(O)c2[nH]c(=O)sc12`, the Ki turned out to be 0.4 nM in assay [1] and 1.8 nM in assay [2].
Take `CC(C)(C)CC(C)(C)NC[C@H](O)c1ccc(O)c2[nH]c(=O)sc12`: the inhibition constant Ki worked out at 1.9 nM in assay [1] and 9.2 nM in assay [2].
For the compound `CNCC(O)c1ccc(O)c2nc(O)sc12` (configuration not stated), the Ki in assay [1] is 5 nM; in assay [2] it was 60.6 nM.
Compound `C[C@@H](NC[C@H](O)c1ccc(O)c2[nH]c(=O)sc12)C1CCCCC1` yielded an Activity in assay [3] of 69%. The Ki in assay [1] turned out to be 1 nM; in assay [2] it was 1.5 nM.
For the compound `O=c1[nH]c2c(O)ccc([C@@H](O)CN[C@H]3CCCC[C@@H]3OCc3ccccc3)c2s1`, the values for the Ki in assay [1] and in assay [2] were 362 nM and 1060 nM, respectively.
For `O=c1[nH]c2c(O)ccc([C@@H](O)CNCC34CC5CC(CC(C5)C3)C4)c2s1`, the inhibition constant (Ki) in assay [1] came to 26.5 nM; in assay [2], 35.4 nM.
In the case of `CC1(C)[C@@H]2CC[C@@]1(C)[C@@H](NC[C@H](O)c1ccc(O)c3[nH]c(=O)sc13)C2`, the Ki in assay [1] came out at 3.8 nM; in assay [2], 450 nM.
For the compound `O=c1[nH]c2c(O)ccc([C@@H](O)CNCCCc3ccccc3)c2s1`, the inhibitory constant (Ki) in assay [1] stood at 1.2 nM; in assay [2] it was 2 nM.
The corresponding values for `O=c1[nH]c2c(O)ccc([C@@H](O)CNCCc3ccccc3)c2s1` are 1.8 nM and 3.8 nM.
As for `C[C@H](NC[C@H](O)c1ccc(O)c2[nH]c(=O)sc12)C1CCCCC1`, the Ki in assay [1] amounted to 25.1 nM; in assay [2], 39.3 nM.
On to `CCCCN(CCCC)CCNC[C@H](O)c1ccc(O)c2[nH]c(=O)sc12`, for which the Ki is 18.3 nM in assay [1] and 31.3 nM in assay [2].
Consider `C[C@H](NC[C@H](O)c1ccc(O)c2[nH]c(=O)sc12)c1ccc2ccccc2c1`, for which the Ki in assay [1] was determined as 48.9 nM; in assay [2], 33.7 nM.
For `O=c1[nH]c2c(O)ccc([C@@H](O)CNC3CCCCC3C3CCCCC3)c2s1` (some centres not stated), in that order: 151 nM and 662 nM.
In the case of `O=c1[nH]c2c(O)ccc([C@@H](O)CN[C@@H]3CCCc4ccccc43)c2s1`, the Ki in assay [1] was found to be 9.4 nM; in assay [2], 112 nM.
For `Cc1onc(-c2ccccc2)c1CNC[C@H](O)c1ccc(O)c2[nH]c(=O)sc12`, the Activity in assay [3] stood at 19%. Also, the inhibitory constant (Ki) turned out to be 19.8 nM in assay [1] and 902 nM in assay [2].
On to `C[C@@H](NC[C@H](O)c1ccc(O)c2[nH]c(=O)sc12)c1ccc2ccccc2c1`, for which the Ki stood at 2.7 nM in assay [1] and 1.4 nM in assay [2].
As for `O=c1[nH]c2c(O)ccc([C@@H](O)CNC3CCN(CCN4CCCCCC4)CC3)c2s1`, the figures for the Ki in assay [1] and in assay [2] were 6.3 nM and 187 nM, respectively.
Take `O=C(NC1CCCCC1)[C@H](Cc1ccccc1)NC[C@H](O)c1ccc(O)c2[nH]c(=O)sc12`: the Ki in assay [1] and in assay [2] was greater than 1000 nM each time.
Regarding `O=c1[nH]c2c(O)ccc([C@@H](O)CNCCOc3ccccc3)c2s1`, the Ki in assay [1] came to 4.4 nM; in assay [2], 17.8 nM.
On to `O=c1[nH]c2c(O)ccc([C@@H](O)CN[C@@H]3CCCC[C@H]3OCc3ccccc3)c2s1`, for which the Activity in assay [3] was determined as 13%. Also, the Ki in assay [1] came to 7.2 nM; in assay [2], 40.4 nM.
For the compound `O=c1[nH]c2c(O)ccc([C@@H](O)CNC3CCCCCC3)c2s1`, the inhibition constant (Ki) in assay [1] turned out to be 11.8 nM; in assay [2], 78.8 nM.
As for `CCC(CC)CNC[C@H](O)c1ccc(O)c2[nH]c(=O)sc12`, the Ki in assay [1] was 24.7 nM; in assay [2], 169 nM.
For `CC1(C)[C@@H]2CC[C@]1(C)[C@@H](NC[C@H](O)c1ccc(O)c3[nH]c(=O)sc13)C2`, the Ki in assay [1] was determined as 40.4 nM; in assay [2], 1510 nM.
